Assay results taken from ChEMBL document CHEMBL5634077, “Recent advances in 1,2,3- and 1,2,4-triazole hybrids as antimicrobials and their SAR: A critical review” (2023).
≈ marks a conversion by molar mass, not a printed value. Values belong to the molecule of their own block, whether it stands above or below them.

Columns and labels:
[1] = test system: Bacillus subtilis; test: Antibacterial activity against Bacillus subtilis ATCC 6633 assessed as reduction in microbial growth; type: functional
[2] = test system: Micrococcus luteus; test: Antibacterial activity against Micrococcus luteus IFC 12708 assessed as reduction in microbial growth; type: functional
[3] = test system: Staphylococcus aureus; test: Antibacterial activity against Staphylococcus aureus ATCC 6538p assessed as reduction in microbial growth; type: functional
[4] = test system: Proteus vulgaris; test: Antibacterial activity against Proteus vulgaris ATCC 3851 assessed as reduction in microbial growth; type: functional
[5] = test system: Salmonella typhimurium; test: Antibacterial activity against Salmonella typhimurium SL1344 assessed as reduction in microbial growth; type: functional, Salmonella enterica subsp. enterica serovar Typhimurium; settings: Salmonella enterica
[6] = test system: Escherichia coli; test: Antibacterial activity against Escherichia coli ATCC 25922 assessed as reduction in microbial growth; type: functional
[7] = test system: Candida albicans; test: Antifungal activity against Candida albicans assessed as fungal growth inhibition by CLSI based method; type: functional
[8] = test system: Cryptococcus neoformans; test: Antifungal activity against Cryptococcus neoformans assessed as fungal growth inhibition by CLSI based method; type: functional
[9] = test system: Staphylococcus aureus; test: Antibacterial activity against Staphylococcus aureus assessed as diameter of inhibition zone; type: functional
[10] = test system: Staphylococcus aureus; test: Antimicrobial activity against Staphylococcus aureus assessed as diameter of inhibition zone incubated for 24 hrs by disc-diffusion method; type: functional
[11] = test system: Escherichia coli; test: Antimicrobial activity against Escherichia coli assessed as diameter of inhibition zone incubated for 24 hrs by disc-diffusion method; type: functional
[12] = test system: Klebsiella pneumoniae; test: Antimicrobial activity against Klebsiella pneumoniae assessed as diameter of inhibition zone incubated for 24 hrs by disc-diffusion method; type: functional
[13] = test system: Candida albicans; test: Antimicrobial activity against Candida albicans assessed as diameter of inhibition zone incubated for 24 hrs by disc-diffusion method; type: functional
[14] = test system: Staphylococcus aureus; test: Antibacterial activity against Staphylococcus aureus assessed as inhibition of bacterial growth; type: functional
[15] = test system: Escherichia coli; test: Antibacterial activity against Escherichia coli assessed as inhibition of bacterial growth; type: functional
[16] = test system: Klebsiella pneumoniae; test: Antibacterial activity against Klebsiella pneumoniae assessed as inhibition of bacterial growth; type: functional
[17] = test system: Candida albicans; test: Antifungal activity against Candida albicans assessed as inhibition of fungal growth; type: functional
[18] = test system: Aspergillus flavus; test: Antifungal activity against Aspergillus flavus assessed as inhibition of fungal growth; type: functional
[19] = test system: Rhizopus; test: Antifungal activity against Rhizopus assessed as inhibition of fungal growth; type: functional
[20] = test system: Staphylococcus aureus; test: Antibacterial activity against methicillin resistant Staphylococcus aureus incubated for 20 hrs by broth microdilution method; type: functional
[21] = test system: Staphylococcus aureus; test: Antibacterial activity against Staphylococcus aureus assessed as reduction in bacterial growth incubated for 24 hrs by broth microdilution method; type: functional
[22] = test system: Pseudomonas aeruginosa; test: Antibacterial activity against Pseudomonas aeruginosa MTCC 1034 assessed as reduction in bacterial growth; type: functional
[23] = test system: Bacillus subtilis; test: Antibacterial activity against Bacillus subtilis MTCC 441 assessed as reduction in bacterial growth; type: functional
[24] = test system: Staphylococcus aureus; test: Antibacterial activity against Staphylococcus aureus; type: functional
[25] = test system: Bacillus subtilis; test: Antibacterial activity against Bacillus subtilis assessed as reduction in bacterial growth; type: functional
[26] = test system: Escherichia coli; test: Antibacterial activity against Escherichia coli ATCC 8739 assessed as reduction in bacterial growth by micro-broth dilution method; type: functional
[27] = test system: Pseudomonas aeruginosa; test: Antibacterial activity against Pseudomonas aeruginosa MCCB 0035 assessed as reduction in bacterial growth by micro-broth dilution method; type: functional
[28] = test system: Staphylococcus aureus; test: Antibacterial activity against Staphylococcus aureus ATCC 29213 assessed as reduction in bacterial growth by micro-broth dilution method; type: functional
[29] = test system: Aspergillus fumigatus; test: […] activity against Aspergillus fumigatus NCIM 2081 assessed as reduction in […] by micro-broth dilution method; type: functional
[30] = test system: Aspergillus niger; test: […] activity against Aspergillus niger NCIM 2191 assessed as reduction in […] by micro-broth dilution method; type: functional
[31] = test system: Candida albicans; test: Antifungal activity against Candida albicans NCIM 2087 assessed as fungal growth inhibition; type: functional
[32] = test system: Aspergillus niger; test: Antifungal activity against Aspergillus niger assessed as fungal growth inhibition; type: functional
[33] = test system: Candida albicans; test: Antifungal activity against Candida albicans ATCC 90028 assessed as growth inhibition incubated for 24 hrs; type: functional

MIC [1]: 1.56 µg/mL
MIC [2]: 1.56 µg/mL
MIC [3]: 1.56 µg/mL
MIC [4]: 1.56 µg/mL
MIC [5]: 1.56 µg/mL
MIC [6]: 1.56 µg/mL
Structure (SMILES): COc1ccc(N2C(=O)CSC2c2cn(-c3ccccc3)nc2-c2nnn(-c3ccccc3)c2C)cc1 (stereo not drawn)

MIC [7]: 0.5 µg/mL (≈ 1.69 µM)
MIC [8]: 0.5 µg/mL (≈ 1.69 µM)
Structure (SMILES): O=C(c1ccc(F)cc1)C(Cc1ccccc1)n1cncn1 (stereo not drawn)

MIC [1]: 1.56 µg/mL
MIC [2]: 1.56 µg/mL
MIC [3]: 1.56 µg/mL
MIC [4]: 1.56 µg/mL
MIC [5]: 1.56 µg/mL
MIC [6]: 1.56 µg/mL
Structure (SMILES): Cc1c(-c2nn(-c3ccccc3)cc2C2SCC(=O)N2c2ccc(F)cc2)nnn1-c1ccccc1 (stereo not drawn)

Structure (SMILES): COCCOCCOCCOCCOC(=O)c1cc(C(=O)OCCOCCOCCOC)cc(-n2cc(CN3C(=O)C(=O)c4ccccc43)nn2)c1
diameter of the inhibition zone (DIZ) [9]: 12 mm

Structure (SMILES): COc1cc(/C=N/n2c(-c3ccc(Cl)cc3)n[nH]c2=S)ccc1O
diameter of the inhibition zone (DIZ) [10]: 4 mm
diameter of the inhibition zone (DIZ) [11]: 4 mm
diameter of the inhibition zone (DIZ) [12]: 4 mm
diameter of the inhibition zone (DIZ) [13]: 4 mm

MIC [14]: 4 µg/mL (≈ 9.19 µM)
MIC [15]: 8 µg/mL (≈ 18.4 µM)
MIC [16]: 4 µg/mL (≈ 9.19 µM)
MIC [17]: 8 µg/mL (≈ 18.4 µM)
MIC [18]: 4 µg/mL (≈ 9.19 µM)
MIC [19]: 8 µg/mL (≈ 18.4 µM)
Structure (SMILES): COc1cc(N2CCC(c3n[nH]c(=S)n3-c3cccc(Cl)c3)CC2)ccc1Cl

Structure (SMILES): COc1cc(/C=C/c2ccc(OCc3cn(CCC(=O)O)nn3)cc2)cc(OC)c1
MIC [20]: 625 µg/mL (≈ 1530 µM)

MIC [21]: 10.1 µg/mL (≈ 27.6 µM)
Structure (SMILES): Cc1ccccc1-n1cc(Cn2c3ccccc3c(=O)c3ccccc32)nn1

MIC [22]: 1.25 µg/mL (≈ 4 µM)
MIC [23]: 1.25 µg/mL (≈ 4 µM)
Structure (SMILES): C=CCCC1CC(=O)N1Cc1cn(-c2ccc(OC)cc2)nn1 (stereo not drawn)

Structure (SMILES): COc1cc(/C=N/n2c(-c3ccc(Cl)cc3Cl)n[nH]c2=S)ccc1O
diameter of the inhibition zone (DIZ) [10]: 3 mm
diameter of the inhibition zone (DIZ) [11]: 3 mm
diameter of the inhibition zone (DIZ) [12]: 3 mm
diameter of the inhibition zone (DIZ) [13]: 3 mm

MIC [24]: 13 µM (≈ 5.88 µg/mL)
MIC [25]: 13 µM (≈ 5.88 µg/mL)
Structure (SMILES): Cc1ccc(NC(=O)Cn2cc(COc3ccc(C(=O)/C=C/c4ccccc4)cc3)nn2)cc1

MIC [26]: 2 µg/mL (≈ 3.78 µM)
MIC [27]: 4 µg/mL (≈ 7.57 µM)
MIC [28]: 1 µg/mL (≈ 1.89 µM)
MIC [29]: 32 µg/mL (≈ 60.6 µM)
MIC [30]: 4 µg/mL (≈ 7.57 µM)
MIC [31]: 2 µg/mL (≈ 3.78 µM)
Structure (SMILES): O=c1cc(-c2ccccc2)c2cc(Br)ccc2n1Cc1nnc2n1N=C(c1ccccc1)CS2

Structure (SMILES): COc1cc(/C=C/c2ccc(OCc3cn(CCCCCC(=O)O)nn3)cc2)cc(OC)c1
MIC [20]: 78.1 µg/mL (≈ 173 µM)

Structure (SMILES): COc1cc(/C=C/c2ccc(OCc3cn(-c4ccc(C(=O)O)cc4)nn3)cc2)cc(OC)c1
MIC [20]: 1.2 µg/mL (≈ 2.62 µM)

MIC [21]: 12.3 µg/mL (≈ 32.4 µM)
Structure (SMILES): Cc1ccc2c(c1)c(=O)c1ccccc1n2Cc1cn(-c2ccccc2C)nn1

MIC [32]: 27.1 µg/mL (≈ 59 µM)
Structure (SMILES): CCCCCCCCCCCCCCCc1nnc(S)n1/N=C\c1ccc([N+](=O)[O-])cc1

Structure (SMILES): CCCNC(=O)c1nnn(-c2ccc(Br)cc2)c1C
growth inhibition (GI) [33]: 13.2%

MIC [1]: 1.56 µg/mL
MIC [2]: 1.56 µg/mL
MIC [3]: 1.56 µg/mL
MIC [4]: 1.56 µg/mL
MIC [5]: 1.56 µg/mL
MIC [6]: 1.56 µg/mL
Structure (SMILES): Cc1c(-c2nn(-c3ccccc3)cc2C2SCC(=O)N2c2cc(F)ccc2F)nnn1-c1ccccc1 (stereo not drawn)

MIC [22]: 1.25 µg/mL (≈ 3.95 µM)
MIC [23]: 1.25 µg/mL (≈ 3.95 µM)
Structure (SMILES): C=CCCC1CC(=O)N1Cc1cn(-c2cccc(Cl)c2)nn1 (stereo not drawn)

Structure (SMILES): COc1cc(/C=C/c2ccc(OCc3cn(CCCCC(=O)O)nn3)cc2)cc(OC)c1
MIC [20]: 78.1 µg/mL (≈ 179 µM)

MIC [24]: 27 µM (≈ 12.1 µg/mL)
Structure (SMILES): COc1ccc(NC(=O)NCc2cn(CC(=O)Nc3ccc(C(F)(F)F)cc3)nn2)cc1

Structure (SMILES): CCCCNC(=O)c1nnn(-c2ccc(Br)cc2)c1C
growth inhibition (GI) [33]: 63.7%

Structure (SMILES): CCCCC(=O)c1cc(C(=O)CCCC)cc(-n2cc(C(C)N3C(=O)C(=O)c4ccccc43)nn2)c1 (stereo not drawn)
diameter of the inhibition zone (DIZ) [9]: 6 mm
